{"source": "ChEMBL document CHEMBL4507283", "about": "“Data for DCP probe BI-1935” (2021)", "key": {"[1]": {"target": "Wee1-like protein kinase (Homo sapiens) (UniProt P30291)", "details": "Compound concentration 1000.0 nM"}, "[2]": {"target": "Receptor tyrosine-protein kinase erbB-3 (Homo sapiens) (UniProt P21860)", "details": "Compound concentration 1000.0 nM"}, "[3]": {"target": "Histamine H2 receptor (Homo sapiens) (UniProt P25021)", "sequence (P25021 whole entry)": "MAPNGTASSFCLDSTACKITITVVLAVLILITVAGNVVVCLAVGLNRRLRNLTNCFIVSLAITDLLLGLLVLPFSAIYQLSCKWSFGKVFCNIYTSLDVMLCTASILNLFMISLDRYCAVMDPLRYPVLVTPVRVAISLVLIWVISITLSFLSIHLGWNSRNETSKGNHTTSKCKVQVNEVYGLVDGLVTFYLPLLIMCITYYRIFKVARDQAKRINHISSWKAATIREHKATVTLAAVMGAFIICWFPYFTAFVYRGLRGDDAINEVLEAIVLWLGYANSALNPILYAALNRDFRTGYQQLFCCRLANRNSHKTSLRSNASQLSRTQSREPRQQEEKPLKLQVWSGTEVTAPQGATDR", "assay": "H2/H Eurofins-Panlabs selectivity data (BI)", "details": "Compound concentration 10.0 uM"}, "[4]": {"target": "Histamine H3 receptor (Homo sapiens) (UniProt Q9Y5N1)", "details": "Compound concentration 10.0 uM"}, "[5]": {"target": "Serine/threonine-protein kinase SIK3 (Homo sapiens) (UniProt Q9Y2K2)", "details": "Compound concentration 1000.0 nM"}, "[6]": {"tested_on": "Epidermal growth factor receptor (Homo sapiens), P00533 [L858R,T790M]", "details": "Compound concentration 1000.0 nM"}, "[7]": {"target": "Ribosomal protein S6 kinase alpha-4 (Homo sapiens) (UniProt O75676)", "details": "Compound concentration 1000.0 nM"}, "[8]": {"target": "Myosin light chain kinase family member 4 (Homo sapiens) (UniProt Q86YV6)", "details": "Compound concentration 1000.0 nM"}, "[9]": {"target": "Voltage-dependent N-type calcium channel subunit alpha-1B (Rattus norvegicus) (UniProt Q02294)", "assay": "CA+/N/RA Eurofins-Panlabs selectivity data (BI)", "details": "Compound concentration 10.0 uM"}, "[10]": {"target": "Serine/threonine-protein kinase DCLK3 (Homo sapiens) (UniProt Q9C098)", "details": "Compound concentration 1000.0 nM"}, "[11]": {"target": "Neutrophil elastase (Homo sapiens) (UniProt P08246)", "assay": "ELASTASEPMN Eurofins-Panlabs selectivity data (BI)", "details": "Compound concentration 10.0 uM"}, "[12]": {"target": "Mitogen-activated protein kinase kinase kinase 19 (Homo sapiens) (UniProt Q56UN5)", "details": "Compound concentration 1000.0 nM"}, "[13]": {"target": "High affinity nerve growth factor receptor (Homo sapiens) (UniProt P04629)", "sequence (P04629 33-796 limits assumed)": "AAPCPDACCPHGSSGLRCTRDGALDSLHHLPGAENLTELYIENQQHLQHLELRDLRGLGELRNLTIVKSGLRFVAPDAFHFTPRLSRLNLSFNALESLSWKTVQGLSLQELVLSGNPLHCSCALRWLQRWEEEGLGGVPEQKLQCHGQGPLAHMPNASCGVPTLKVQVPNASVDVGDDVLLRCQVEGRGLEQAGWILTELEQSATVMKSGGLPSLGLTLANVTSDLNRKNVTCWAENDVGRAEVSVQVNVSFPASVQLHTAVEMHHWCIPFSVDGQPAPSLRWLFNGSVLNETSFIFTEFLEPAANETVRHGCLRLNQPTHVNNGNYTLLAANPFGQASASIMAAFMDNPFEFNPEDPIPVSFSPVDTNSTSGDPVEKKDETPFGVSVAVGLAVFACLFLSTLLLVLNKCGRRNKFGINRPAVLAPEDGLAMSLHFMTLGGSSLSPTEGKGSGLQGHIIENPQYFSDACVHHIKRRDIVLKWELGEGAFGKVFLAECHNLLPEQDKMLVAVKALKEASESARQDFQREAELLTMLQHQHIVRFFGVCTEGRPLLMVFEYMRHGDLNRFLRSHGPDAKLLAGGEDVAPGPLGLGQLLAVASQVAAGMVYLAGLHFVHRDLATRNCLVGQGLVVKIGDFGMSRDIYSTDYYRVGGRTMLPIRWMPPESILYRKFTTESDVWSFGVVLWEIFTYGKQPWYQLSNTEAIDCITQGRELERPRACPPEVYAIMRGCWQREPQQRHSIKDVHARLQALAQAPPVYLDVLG", "details": "Compound concentration 1000.0 nM"}, "[14]": {"target": "Calcium/calmodulin-dependent protein kinase type 1 (Homo sapiens) (UniProt Q14012)", "details": "Compound concentration 1000.0 nM"}, "[15]": {"target": "MAP kinase-interacting serine/threonine-protein kinase 1 (Homo sapiens) (UniProt Q9BUB5)", "details": "Compound concentration 1000.0 nM"}, "[16]": {"target": "Ribosomal protein S6 kinase alpha-2 (Homo sapiens) (UniProt Q15349)", "sequence (Q15349 whole entry)": "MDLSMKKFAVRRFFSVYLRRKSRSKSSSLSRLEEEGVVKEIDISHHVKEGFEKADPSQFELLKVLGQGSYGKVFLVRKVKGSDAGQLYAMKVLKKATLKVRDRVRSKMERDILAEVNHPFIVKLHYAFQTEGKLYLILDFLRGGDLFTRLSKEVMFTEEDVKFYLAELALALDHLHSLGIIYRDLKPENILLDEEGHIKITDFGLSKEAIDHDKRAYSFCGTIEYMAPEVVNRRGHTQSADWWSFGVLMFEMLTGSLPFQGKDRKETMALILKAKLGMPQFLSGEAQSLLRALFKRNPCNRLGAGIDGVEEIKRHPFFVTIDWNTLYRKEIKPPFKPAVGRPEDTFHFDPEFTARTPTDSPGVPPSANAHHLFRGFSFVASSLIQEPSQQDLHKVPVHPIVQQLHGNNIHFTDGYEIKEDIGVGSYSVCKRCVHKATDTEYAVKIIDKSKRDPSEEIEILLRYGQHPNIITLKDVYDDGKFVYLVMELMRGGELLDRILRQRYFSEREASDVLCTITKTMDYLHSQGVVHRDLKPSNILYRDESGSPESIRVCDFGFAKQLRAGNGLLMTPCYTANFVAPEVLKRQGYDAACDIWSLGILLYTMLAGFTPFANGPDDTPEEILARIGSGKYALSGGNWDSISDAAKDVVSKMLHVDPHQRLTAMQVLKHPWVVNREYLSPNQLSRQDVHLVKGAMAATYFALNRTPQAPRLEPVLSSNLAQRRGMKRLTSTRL", "details": "Compound concentration 1000.0 nM"}, "[17]": {"target": "Mitogen-activated protein kinase kinase kinase kinase 3 (Homo sapiens) (UniProt Q8IVH8)", "details": "Compound concentration 1000.0 nM"}, "[18]": {"target": "Cytoplasmic tyrosine-protein kinase BMX (Homo sapiens) (UniProt P51813)", "sequence (P51813 whole entry)": "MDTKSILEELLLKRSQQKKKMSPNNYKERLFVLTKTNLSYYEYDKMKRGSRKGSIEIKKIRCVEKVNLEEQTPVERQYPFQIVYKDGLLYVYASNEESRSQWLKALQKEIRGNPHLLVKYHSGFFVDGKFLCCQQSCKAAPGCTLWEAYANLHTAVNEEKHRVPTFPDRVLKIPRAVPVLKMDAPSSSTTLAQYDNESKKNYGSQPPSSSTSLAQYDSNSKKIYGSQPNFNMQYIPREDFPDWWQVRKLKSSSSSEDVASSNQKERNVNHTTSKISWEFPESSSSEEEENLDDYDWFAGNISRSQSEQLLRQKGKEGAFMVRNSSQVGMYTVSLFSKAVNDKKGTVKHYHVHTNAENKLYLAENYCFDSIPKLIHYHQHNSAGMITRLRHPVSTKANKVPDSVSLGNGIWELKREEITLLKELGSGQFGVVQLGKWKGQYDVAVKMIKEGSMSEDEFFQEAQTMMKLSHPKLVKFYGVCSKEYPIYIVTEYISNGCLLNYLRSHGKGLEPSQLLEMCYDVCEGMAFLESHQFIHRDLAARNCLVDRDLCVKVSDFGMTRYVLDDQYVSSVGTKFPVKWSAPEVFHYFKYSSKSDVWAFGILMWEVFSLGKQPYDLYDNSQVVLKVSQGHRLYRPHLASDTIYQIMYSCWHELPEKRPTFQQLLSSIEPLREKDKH", "details": "Compound concentration 1000.0 nM"}, "[19]": {"target": "Serine/threonine-protein kinase 26 (Homo sapiens) (UniProt Q9P289)", "details": "Compound concentration 1000.0 nM"}, "[20]": {"target": "Dual specificity protein kinase CLK1 (Homo sapiens) (UniProt P49759)", "details": "Compound concentration 1000.0 nM"}, "[21]": {"target": "Serine/threonine-protein kinase PLK1 (Homo sapiens) (UniProt P53350)", "details": "Compound concentration 1000.0 nM"}, "[22]": {"target": "Dual specificity tyrosine-phosphorylation-regulated kinase 1B (Homo sapiens) (UniProt Q9Y463)", "details": "Compound concentration 1000.0 nM"}, "[23]": {"target": "Protein-tyrosine kinase 6 (Homo sapiens) (UniProt Q13882)", "details": "Compound concentration 1000.0 nM"}, "[24]": {"target": "Serine/threonine-protein kinase pim-1 (Homo sapiens) (UniProt P11309)", "sequence (P11309 whole entry, looked up)": "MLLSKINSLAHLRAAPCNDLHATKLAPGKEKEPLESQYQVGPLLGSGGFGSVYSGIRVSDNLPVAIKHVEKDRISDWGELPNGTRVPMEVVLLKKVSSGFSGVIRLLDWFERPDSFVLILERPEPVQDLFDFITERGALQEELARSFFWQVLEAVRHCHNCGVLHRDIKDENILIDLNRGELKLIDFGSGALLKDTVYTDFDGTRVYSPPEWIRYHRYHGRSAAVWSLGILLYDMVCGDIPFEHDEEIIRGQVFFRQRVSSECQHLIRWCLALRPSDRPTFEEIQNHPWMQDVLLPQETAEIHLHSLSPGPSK", "details": "Compound concentration 1000.0 nM"}, "[25]": {"target": "Serine/threonine-protein kinase TAO3 (Homo sapiens) (UniProt Q9H2K8)", "details": "Compound concentration 1000.0 nM"}, "[26]": {"target": "Ribosomal protein S6 kinase alpha-3 (Homo sapiens) (UniProt P51812)", "details": "Compound concentration 1000.0 nM"}, "[27]": {"target": "Insulin receptor (Homo sapiens) (UniProt P06213)", "details": "Compound concentration 1000.0 nM"}, "[28]": {"target": "Muscarinic acetylcholine receptor (Rattus norvegicus) (UniProt P08482+P08483+P08485+P08911+P10980)", "assay": "MUSCARIN/NS Eurofins-Panlabs selectivity data (BI)", "format": "protein assay", "details": "Compound concentration 10.0 uM"}, "[29]": {"target": "Serine/threonine-protein kinase TBK1 (Homo sapiens) (UniProt Q9UHD2)", "details": "Compound concentration 1000.0 nM"}, "[30]": {"target": "Mitogen-activated protein kinase 7 (Homo sapiens) (UniProt Q13164)", "sequence (Q13164 2-816 limits assumed)": "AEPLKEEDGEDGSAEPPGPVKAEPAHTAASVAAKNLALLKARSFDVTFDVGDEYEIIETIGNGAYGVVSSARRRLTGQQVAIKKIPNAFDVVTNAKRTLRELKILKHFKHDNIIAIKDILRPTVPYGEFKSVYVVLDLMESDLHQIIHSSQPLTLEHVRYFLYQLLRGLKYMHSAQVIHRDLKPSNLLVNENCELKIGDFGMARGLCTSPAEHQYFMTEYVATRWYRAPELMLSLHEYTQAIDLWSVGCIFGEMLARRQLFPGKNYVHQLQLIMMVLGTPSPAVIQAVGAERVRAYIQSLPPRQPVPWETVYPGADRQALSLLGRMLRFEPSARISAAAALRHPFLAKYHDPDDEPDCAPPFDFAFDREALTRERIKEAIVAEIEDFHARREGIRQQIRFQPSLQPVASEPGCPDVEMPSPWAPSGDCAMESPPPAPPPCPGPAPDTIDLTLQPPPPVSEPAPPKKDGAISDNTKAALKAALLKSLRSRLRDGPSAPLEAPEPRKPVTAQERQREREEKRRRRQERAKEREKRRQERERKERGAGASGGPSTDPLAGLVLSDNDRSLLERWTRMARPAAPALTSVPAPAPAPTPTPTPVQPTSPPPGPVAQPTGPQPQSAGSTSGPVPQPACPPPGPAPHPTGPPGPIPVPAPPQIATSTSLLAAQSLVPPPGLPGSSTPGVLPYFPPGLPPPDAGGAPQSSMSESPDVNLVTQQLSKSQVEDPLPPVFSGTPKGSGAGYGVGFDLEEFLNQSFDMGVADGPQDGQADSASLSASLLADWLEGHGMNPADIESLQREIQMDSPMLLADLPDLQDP", "details": "Compound concentration 1000.0 nM"}, "[31]": {"target": "Dual specificity mitogen-activated protein kinase kinase 5 (Homo sapiens) (UniProt Q13163)", "details": "Compound concentration 1000.0 nM"}, "[32]": {"target": "Mitogen-activated protein kinase 3 (Homo sapiens) (UniProt P27361)", "details": "Compound concentration 1000.0 nM"}, "[33]": {"target": "Cyclin-dependent kinase 4 (Homo sapiens) (UniProt P11802)", "details": "Compound concentration 1000.0 nM"}, "[34]": {"target": "Myosin light chain kinase (Homo sapiens) (UniProt Q32MK0)", "details": "Compound concentration 1000.0 nM"}, "[35]": {"target": "Neprilysin (Homo sapiens) (UniProt P08473)", "assay": "NEUTRALENDOP Eurofins-Panlabs selectivity data (BI)", "details": "Compound concentration 10.0 uM"}, "[36]": {"tested_on": "Tyrosine-protein kinase ABL1 (Homo sapiens), P00519 [F317I]", "sequence (P00519 whole entry F317I)": "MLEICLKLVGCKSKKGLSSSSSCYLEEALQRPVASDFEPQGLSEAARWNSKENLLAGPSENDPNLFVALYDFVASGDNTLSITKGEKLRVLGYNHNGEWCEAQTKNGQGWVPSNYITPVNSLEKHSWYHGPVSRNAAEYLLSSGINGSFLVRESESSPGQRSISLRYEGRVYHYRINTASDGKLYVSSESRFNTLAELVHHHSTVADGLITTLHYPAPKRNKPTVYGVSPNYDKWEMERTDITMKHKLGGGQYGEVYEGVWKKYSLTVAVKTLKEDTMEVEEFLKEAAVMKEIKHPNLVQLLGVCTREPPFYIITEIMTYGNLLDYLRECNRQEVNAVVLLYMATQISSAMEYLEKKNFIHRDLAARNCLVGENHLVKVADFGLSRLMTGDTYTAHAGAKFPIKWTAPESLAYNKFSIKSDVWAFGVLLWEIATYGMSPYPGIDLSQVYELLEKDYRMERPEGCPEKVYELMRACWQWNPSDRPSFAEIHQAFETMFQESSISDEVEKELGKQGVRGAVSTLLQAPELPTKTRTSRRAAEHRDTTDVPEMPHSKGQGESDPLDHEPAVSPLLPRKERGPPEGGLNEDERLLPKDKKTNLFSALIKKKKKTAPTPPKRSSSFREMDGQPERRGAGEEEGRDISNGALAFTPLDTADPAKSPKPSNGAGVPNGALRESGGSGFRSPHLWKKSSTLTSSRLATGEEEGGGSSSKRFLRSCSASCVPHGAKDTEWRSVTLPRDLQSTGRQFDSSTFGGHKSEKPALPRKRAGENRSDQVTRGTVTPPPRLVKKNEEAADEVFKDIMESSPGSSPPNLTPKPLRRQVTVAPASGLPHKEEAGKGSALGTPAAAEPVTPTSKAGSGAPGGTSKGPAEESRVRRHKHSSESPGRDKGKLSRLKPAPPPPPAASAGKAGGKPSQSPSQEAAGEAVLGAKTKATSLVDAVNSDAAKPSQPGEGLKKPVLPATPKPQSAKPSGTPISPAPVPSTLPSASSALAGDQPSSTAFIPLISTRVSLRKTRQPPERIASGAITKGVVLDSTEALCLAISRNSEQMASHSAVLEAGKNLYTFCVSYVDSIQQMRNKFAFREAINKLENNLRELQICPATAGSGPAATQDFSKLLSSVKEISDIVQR", "details": "Compound concentration 1000.0 nM"}, "[37]": {"target": "cAMP-dependent protein kinase catalytic subunit beta (Homo sapiens) (UniProt P22694)", "details": "Compound concentration 1000.0 nM"}, "[38]": {"target": "Tyrosine-protein kinase ABL2 (Homo sapiens) (UniProt P42684)", "details": "Compound concentration 1000.0 nM"}, "[39]": {"target": "Macrophage-stimulating protein receptor (Homo sapiens) (UniProt Q04912)", "details": "Compound concentration 1000.0 nM"}, "[40]": {"target": "Tyrosine-protein kinase SYK (Homo sapiens) (UniProt P43405)", "details": "Compound concentration 1000.0 nM"}, "[41]": {"target": "Interstitial collagenase (Homo sapiens) (UniProt P03956)", "assay": "PEP_MMP-1 Eurofins-Panlabs selectivity data (BI)", "details": "Compound concentration 10.0 uM"}, "[42]": {"target": "MAP/microtubule affinity-regulating kinase 3 (Homo sapiens) (UniProt P27448)", "details": "Compound concentration 1000.0 nM"}, "[43]": {"target": "Platelet-derived growth factor receptor alpha (Homo sapiens) (UniProt P16234)", "details": "Compound concentration 1000.0 nM"}, "[44]": {"target": "Death-associated protein kinase 2 (Homo sapiens) (UniProt Q9UIK4)", "details": "Compound concentration 1000.0 nM"}, "[45]": {"target": "Cyclin-dependent kinase 18 (Homo sapiens) (UniProt Q07002)", "details": "Compound concentration 1000.0 nM"}}, "data": [{"compound": "CCOCCn1cc(C(=O)Nc2ccc(-n3nc(-c4cccnc4)cc3C(F)(F)F)cn2)ccc1=O", "note": "[BI 1935]", "values": [{"measurement": "residual activity", "setting": "[1]", "value": 100, "unit": "%"}, {"measurement": "residual activity", "setting": "[2]", "value": 87, "unit": "%"}, {"measurement": "residual activity", "setting": "[3]", "value": 106, "unit": "%"}, {"measurement": "inhibition", "setting": "[4]", "value": 25.3, "unit": "%"}, {"measurement": "residual activity", "setting": "[5]", "value": 92, "unit": "%"}, {"measurement": "residual activity", "setting": "[6]", "value": 96, "unit": "%"}, {"measurement": "residual activity", "setting": "[7]", "value": 100, "unit": "%"}, {"measurement": "residual activity", "setting": "[8]", "value": 100, "unit": "%"}, {"measurement": "residual activity", "setting": "[9]", "value": 102, "unit": "%"}, {"measurement": "residual activity", "setting": "[10]", "value": 100, "unit": "%"}, {"measurement": "residual activity", "setting": "[11]", "value": 100, "unit": "%"}, {"measurement": "residual activity", "setting": "[12]", "value": 75, "unit": "%"}, {"measurement": "residual activity", "setting": "[13]", "value": 100, "unit": "%"}, {"measurement": "residual activity", "setting": "[14]", "value": 100, "unit": "%"}, {"measurement": "residual activity", "setting": "[15]", "value": 97, "unit": "%"}, {"measurement": "residual activity", "setting": "[16]", "value": 84, "unit": "%"}, {"measurement": "residual activity", "setting": "[17]", "value": 85, "unit": "%"}, {"measurement": "residual activity", "setting": "[18]", "value": 84, "unit": "%"}, {"measurement": "residual activity", "setting": "[19]", "value": 81, "unit": "%"}, {"measurement": "residual activity", "setting": "[20]", "value": 100, "unit": "%"}, {"measurement": "residual activity", "setting": "[21]", "value": 100, "unit": "%"}, {"measurement": "residual activity", "setting": "[22]", "value": 39, "unit": "%"}, {"measurement": "residual activity", "setting": "[23]", "value": 100, "unit": "%"}, {"measurement": "residual activity", "setting": "[24]", "value": 100, "unit": "%"}, {"measurement": "residual activity", "setting": "[25]", "value": 66, "unit": "%"}, {"measurement": "residual activity", "setting": "[26]", "value": 84, "unit": "%"}, {"measurement": "residual activity", "setting": "[27]", "value": 98, "unit": "%"}, {"measurement": "residual activity", "setting": "[28]", "value": 112, "unit": "%"}, {"measurement": "residual activity", "setting": "[29]", "value": 76, "unit": "%"}, {"measurement": "residual activity", "setting": "[30]", "value": 86, "unit": "%"}, {"measurement": "residual activity", "setting": "[31]", "value": 84, "unit": "%"}, {"measurement": "residual activity", "setting": "[32]", "value": 100, "unit": "%"}, {"measurement": "residual activity", "setting": "[33]", "value": 87, "unit": "%"}, {"measurement": "residual activity", "setting": "[34]", "value": 97, "unit": "%"}, {"measurement": "residual activity", "setting": "[35]", "value": 104, "unit": "%"}, {"measurement": "residual activity", "setting": "[36]", "value": 91, "unit": "%"}, {"measurement": "residual activity", "setting": "[37]", "value": 100, "unit": "%"}, {"measurement": "residual activity", "setting": "[38]", "value": 87, "unit": "%"}, {"measurement": "residual activity", "setting": "[39]", "value": 100, "unit": "%"}, {"measurement": "residual activity", "setting": "[40]", "value": 100, "unit": "%"}, {"measurement": "residual activity", "setting": "[41]", "value": 100, "unit": "%"}, {"measurement": "residual activity", "setting": "[42]", "value": 100, "unit": "%"}, {"measurement": "residual activity", "setting": "[43]", "value": 68, "unit": "%"}, {"measurement": "residual activity", "setting": "[44]", "value": 93, "unit": "%"}, {"measurement": "residual activity", "setting": "[45]", "value": 98, "unit": "%"}]}]}
